Substitutions are numbered along the chain they refer to. Read-outs that look alike come from different tables or passages of the source.
Tests used:
[1] = target: T1, hAR (human androgen receptor, baculovirus/Sf9 generated extracts) (Homo sapiens, UniProt P10275); assay: AR Binding Assay (competitive binding with 3H-DHT tracer); conditions: 1 nM 3H-DHT, one hour at 4° C., mean of multiple tests
T1 construct: made in house; host or cells: baculovirus/Sf9 insect cells (crude extract)
T1 sequence (P10275 1-920): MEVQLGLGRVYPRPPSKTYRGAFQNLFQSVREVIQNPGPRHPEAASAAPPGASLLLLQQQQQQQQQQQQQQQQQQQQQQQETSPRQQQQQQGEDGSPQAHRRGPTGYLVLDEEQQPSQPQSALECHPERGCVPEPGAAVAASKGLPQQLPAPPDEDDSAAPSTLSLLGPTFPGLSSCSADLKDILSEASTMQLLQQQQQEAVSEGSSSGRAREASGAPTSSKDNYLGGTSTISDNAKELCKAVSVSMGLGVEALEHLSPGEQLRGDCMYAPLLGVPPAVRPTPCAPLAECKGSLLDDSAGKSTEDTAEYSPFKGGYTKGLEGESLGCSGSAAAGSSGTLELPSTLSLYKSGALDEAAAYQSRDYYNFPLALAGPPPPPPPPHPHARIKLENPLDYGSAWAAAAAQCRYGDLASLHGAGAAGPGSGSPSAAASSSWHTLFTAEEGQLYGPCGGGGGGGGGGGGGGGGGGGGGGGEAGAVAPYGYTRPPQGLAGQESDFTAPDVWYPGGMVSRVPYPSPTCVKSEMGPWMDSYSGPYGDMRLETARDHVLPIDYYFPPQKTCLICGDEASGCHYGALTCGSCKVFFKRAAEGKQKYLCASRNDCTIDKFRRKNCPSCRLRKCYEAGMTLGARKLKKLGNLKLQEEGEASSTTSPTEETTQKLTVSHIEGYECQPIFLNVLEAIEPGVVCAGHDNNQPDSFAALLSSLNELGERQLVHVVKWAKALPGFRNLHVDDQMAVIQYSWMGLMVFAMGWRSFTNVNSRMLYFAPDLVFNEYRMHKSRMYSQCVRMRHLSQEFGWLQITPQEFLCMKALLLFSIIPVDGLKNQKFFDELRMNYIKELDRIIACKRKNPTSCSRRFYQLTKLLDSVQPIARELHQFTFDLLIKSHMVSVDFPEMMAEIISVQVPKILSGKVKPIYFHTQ
Method: The compounds of Formula I have affinity for the androgen receptor. […] The description below describes how the assay was carried out.
Competitive binding analysis was performed on baculovirus/Sf9 generated hAR extracts in the presence or absence of different concentrations of test agent and a fixed concentration of ^3H-dihydrotestosterone (^3H-DHT) as tracer. This binding assay method is a modification of a protocol previously described (Liao S., et. al., J. Steroid Biochem., 20:11-17, 1984). Briefly, progressively decreasing concentrations of compounds are incubated in the presence of hAR extract (Chang et al., P.N.A.S., Vol. 89, pp. 5546-5950, 1992), hydroxylapatite, and 1 nM ^3H-DHT for one hour at 4° C. Subsequently, the binding reactions are washed three times to completely remove excess unbound ^3H-DHT. hAR bound ^3H-DHT levels are determined in the presence of compounds (i.e. competitive binding) and compared to levels bound when no competitor is present (i.e. maximum binding). Compound binding affinity to the hAR is expressed as the concentration of compound at which one half of the maximum binding is inhibited. Table II below provides the results that were obtained for selected compounds (reported data is the mean of multiple tests as shown below).

[2] = target: T2, androgen receptor in MDA-MB453-MMTV clone 54-19 cells (Homo sapiens, UniProt P10275); assay: AR Antagonist Cell Assay (MMTV-luciferase reporter, DHT-induced); format: cell-based; conditions: MDA-MB453-MMTV clone 54-19, 100 pM DHT, 17 hr; mean of multiple tests
T2 sequence (P10275 1-920 Q868H): T1 sequence (P10275 1-920) with Q868H
Method: The compounds ability to antagonize the effects of androgen on the androgen receptor were determined in a whole cell assay as described immediately below.
Cell line: MDA-MB453-MMTV clone 54-19. This cell line is a stable transfected cell line with MDA-MB453 cell background (a human breast tumor cell line expressing androgen receptor). A MMTV minimal promoter containing ARE was first cloned in front of a firefly luciferase reporter gene. Then the cascade was cloned into transfection vector pUV120puro. Electroporation method was used for transfecting MDA-MB-453 cell. Puromycin resistant stable cell line was selected.
Culture medium: DMEM (high glucose, Gibco cat #: 11960-044), 10% FBS, and 1% L-glutamine
Plating medium: DMEM (phenol red free), 10% charcoal treated HyClone serum, 1% L-glutamine
Assay medium: DMEM (phenol red free), 1% charcoal treated HyClone serum, 1% L-glutamine, and 1% penicillin/streptomycin
3× luciferase buffer: 2% beta-mercaptoethanol, 0.6% ATP, 0.0135% luciferine in cell lysis buffer
Cells are maintained in culture medium, splitting cells when they reach 80-90% confluence. To test compounds, 10,000 cells/well are plated to opaque 96 cell culture plate in 100 ul/well plating medium, culture for overnight at 37° C. in cell culture incubator. Carefully remove plating medium, then add 80 ul/well of pre-warmed assay medium, add 10 ul/well testing compound (final concentration at) 1000 nM, 200 nM, 40 nM, 8 nM, 1.6 nM, and 0.32 nM), incubate at 37° C. for 30 minutes. Add 10 ul/well freshly prepared DHT (final concentration at 100 pM) to each well, incubate at 37° C. for 17 hr (overnight). Add 50 ul/well 3× luciferase buffer, incubate at room temperature for 5 minutes, then count on Luminometer. The fold induction over background by 100 pM DHT in the absence of testing compounds is standardized as 100% and experimental result is expressed as percentage of inhibition by testing compounds.
The results are reported as the mean of multiple tests as described below (the numbers of tests are indicated in the footnote). ND denotes that the compound was not tested.

[3] = hAR extract, read-out: AR Binding IC50

SMILES | IC50 ([1]; AR Binding IC50, hAR extract) [nM] | IC50 [2] [nM] | IC50 [1, 3] [nM]
CC(Oc1ccc(C#N)c(C(F)(F)F)c1)c1cccc(O)c1 (racemic) [Example 8, 4-[1-(3-Hydroxyphenyl)ethoxy]-2-(trifluoromethyl)benzonitrile] | 21 | 529 | –
CCC(Oc1ccc(C#N)c(C(F)(F)F)c1)c1cccc(O)c1 (racemic) [Example 11, 4-[1-(3-Hydroxyphenyl)propoxy]-2-(trifluoromethyl)benzonitrile] | 11 | > 1000 | –
C=CCC(Oc1ccc(C#N)c(C(F)(F)F)c1)c1cccc(O)c1 (racemic) [Example 17, 4-{[1-(3-Hydroxyphenyl)but-3-enyl]oxy}-2-(trifluoromethyl)benzonitrile] | 14 | 105 | –
CC(C)CC(Oc1ccc(C#N)c(C(F)(F)F)c1)c1cccc(O)c1 (racemic) [Example 20, 4-[1-(3-Hydroxyphenyl)-3-methylbutoxy]-2-(trifluoromethyl)benzonitrile] | 183 | 40 | –
COC(=O)c1ccc(C(C)Oc2ccc(C#N)c(C(F)(F)F)c2)cc1 (racemic) [Example 29, (±)-4-[1-(4-Cyano-3-trifluoromethyl-phenoxy)-ethyl]-benzoic Acid Methyl Ester] | – | 132 | 102
CC(Oc1ccc(C#N)c(C(F)(F)F)c1)c1cccnc1 (racemic) [Example 33, 4-(1-Pyridin-3-yl-ethoxy)-2-trifluoromethyl-benzonitrile] | 192 | 63 | –
CC(Oc1ccc(C#N)c(C(F)(F)F)c1)c1ccccn1 (racemic) [Example 35, 4-(1-Pyridin-2-yl-ethoxy)-2-trifluoromethyl-benzonitrile] | 180 | 254 | –
CC(Oc1ccc(C#N)c(C(F)(F)F)c1)c1cccnc1 (single isomer, unassigned) [Example 34, 4-(1-Pyridin-3-yl-ethoxy)-2-trifluoromethyl-benzonitrile] | 141 | 94 | –
CC(Oc1ccc(C#N)c(C(F)(F)F)c1)c1cccc(OC2CCCCO2)c1 (stereo not shown) [Example 7, 4-{1-[3-(Tetrahydro-2H-pyran-2-yloxy)phenyl]ethoxy}-2-(trifluoromethyl)benzonitrile] | – | – | 383
CC(Oc1ccc(C#N)c(C(F)(F)F)c1)c1ccc(Cl)cc1 (stereo not shown) [Example 23, 4-[1-(4-Chloro-phenyl)-ethoxy]-2-trifluoromethyl-benzonitrile] | – | – | 307
Cc1ccccc1C(C)Oc1ccc(C#N)c(C(F)(F)F)c1 (stereo not shown) [Example 27, 4-(1-o-Tolyl-ethoxy)-2-trifluoromethyl-benzonitrile] | – | – | 439
CC(Oc1ccc(C#N)c(C(F)(F)F)c1)c1cccc(C(F)(F)F)c1 (stereo not shown) [Example 32, 2-Trifluoromethyl-4-[1-(3-trifluoromethyl-phenyl)-ethoxy]-benzonitrile] | – | – | 214
C[C@@H](Oc1ccc(C#N)cc1Cl)c1ccccc1 [Example 38, (R)-3-Chloro-4-(1-phenyl-ethoxy)-benzonitrile] | 281 | – | –
C[C@H](Oc1ccc(C#N)cc1Cl)c1ccccc1 [Example 39, (S)-3-Chloro-4-(1-phenyl-ethoxy)-benzonitrile] | 410 | – | –
CC(Cc1ccccc1)(Oc1ccc(C#N)cc1Cl)c1ccccc1 (stereo not shown) [Example 42, 3-Chloro-4-(1-methyl-1,2-diphenyl-ethoxy)-benzonitrile] | – | – | 377
COc1ccccc1COc1ccc(C#N)c(C(F)(F)F)c1 [Example 45, 4-(2-Methoxy-benzyloxy)-2-trifluoromethyl-benzonitrile] | – | > 1000 | –
CCC(C)(Oc1ccc(C#N)c(C(F)(F)F)c1)c1ccccc1 (stereo not shown) [Example 47, 4-(1-Methyl-1-phenyl-propoxy)-2-trifluoromethyl-benzonitrile] | – | – | 461
Cc1cccc(COc2ccc(C#N)c(C(F)(F)F)c2)c1 [Example 52, 4-(3-Methyl-benzyloxy)-2-trifluoromethyl-benzonitrile] | – | – | 302
Cc1cccc(C)c1C(C)Oc1ccc(C#N)c(Cl)c1 (stereo not shown) [Example 63, 2-Chloro-4-[1-(2,6-dimethyl-phenyl)-ethoxy]-benzonitrile] | – | – | 328
COc1cc(OC(C)Cc2ccccc2)ccc1C#N (stereo not shown) [Example 71A, 2-Methoxy-4-(1-methyl-2-phenyl-ethoxy)-benzonitrile] | – | – | 306
COc1ccc(CCOc2ccc(C#N)c(C(F)(F)F)c2)cc1 [Example 76, 4-[2-(4-Methoxy-phenyl)-ethoxy]-2-trifluoromethyl-benzonitrile] | – | – | 281
CCCC(Oc1ccc(C#N)c(C(F)(F)F)c1)c1cccc(C)n1 (stereo not shown) [Example 86, 4-[1-(6-Methyl-pyridin-2-yl)-butoxy]-2-trifluoromethyl-benzonitrile] | – | – | 330
CCC(Oc1ccc(C#N)c(C(F)(F)F)c1)c1cccc(C)n1 (stereo not shown) [Example 87, 4-[1-(6-Methyl-pyridin-2-yl)-propoxy]-2-trifluoromethyl-benzonitrile] | – | – | 483

Reference: patent publication US20090170886A1 (Pfizer Inc, priority 2005, published 2009)
